Assay [1] deals with Focal adhesion kinase 1 (Homo sapiens) (UniProt Q05397). Description: Inhibition of FAK at 10 uM.
In assay [2] the target is BDNF/NT-3 growth factors receptor (Homo sapiens) (UniProt Q16620). The assay is described as follows: Inhibition of TRKB at 10 uM.
For assay [3], the target named is T1, NUAK family SNF1-like kinase 1 (Homo sapiens) (UniProt O60285).
T1 sequence (whole entry): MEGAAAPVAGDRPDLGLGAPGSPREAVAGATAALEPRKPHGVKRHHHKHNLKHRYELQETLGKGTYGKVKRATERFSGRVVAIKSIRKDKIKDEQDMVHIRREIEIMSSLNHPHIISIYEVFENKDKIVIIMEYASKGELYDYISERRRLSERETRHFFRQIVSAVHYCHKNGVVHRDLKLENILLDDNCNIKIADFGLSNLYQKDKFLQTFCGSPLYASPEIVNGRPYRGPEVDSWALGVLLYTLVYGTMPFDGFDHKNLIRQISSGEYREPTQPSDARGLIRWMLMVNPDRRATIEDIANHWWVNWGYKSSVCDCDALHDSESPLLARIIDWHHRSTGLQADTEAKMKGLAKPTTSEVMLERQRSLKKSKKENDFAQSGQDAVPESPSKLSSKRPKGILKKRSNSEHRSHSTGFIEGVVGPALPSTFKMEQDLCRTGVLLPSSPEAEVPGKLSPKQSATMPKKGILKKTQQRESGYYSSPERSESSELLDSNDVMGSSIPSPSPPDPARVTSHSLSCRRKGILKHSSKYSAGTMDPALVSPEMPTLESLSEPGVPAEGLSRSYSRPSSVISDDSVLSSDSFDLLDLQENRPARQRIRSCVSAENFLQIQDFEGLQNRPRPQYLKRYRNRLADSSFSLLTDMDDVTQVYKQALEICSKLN
The assay is described as follows: Inhibition of ARK5 at 10 uM.

The target of assay [4] is RAC-alpha serine/threonine-protein kinase (Homo sapiens) (UniProt P31749). The assay is described as follows: Inhibition of AKT1 at 10 uM.
Chain of RAC-alpha serine/threonine-protein kinase (Homo sapiens) (P31749 whole entry): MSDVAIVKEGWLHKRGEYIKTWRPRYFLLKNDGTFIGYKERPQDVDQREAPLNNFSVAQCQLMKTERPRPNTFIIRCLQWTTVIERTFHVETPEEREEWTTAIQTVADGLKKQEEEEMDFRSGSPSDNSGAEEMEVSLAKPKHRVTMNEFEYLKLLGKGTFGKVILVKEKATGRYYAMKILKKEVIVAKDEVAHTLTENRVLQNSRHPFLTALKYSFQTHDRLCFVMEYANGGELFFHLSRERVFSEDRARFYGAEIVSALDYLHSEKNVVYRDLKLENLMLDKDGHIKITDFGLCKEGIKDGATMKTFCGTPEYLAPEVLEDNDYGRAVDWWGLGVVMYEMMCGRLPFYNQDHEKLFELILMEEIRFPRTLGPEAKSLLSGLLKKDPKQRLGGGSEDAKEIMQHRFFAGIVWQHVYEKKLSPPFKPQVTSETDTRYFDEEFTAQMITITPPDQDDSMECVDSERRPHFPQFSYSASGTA
Assay [5] addresses Casein kinase II subunit alpha (Homo sapiens) (UniProt P68400). The assay is described as follows: Inhibition of CK2alpha1 at 10 uM.
In assay [6] the target is Insulin receptor (Homo sapiens) (UniProt P06213). The assay is described as follows: Inhibition of INSR at 10 uM.
The target in assay [7] is Proto-oncogene tyrosine-protein kinase Src (Homo sapiens) (UniProt P12931). Description: Inhibition of SRC at 10 uM.
For assay [8], the target named is Tyrosine-protein kinase receptor UFO (Homo sapiens) (UniProt P30530). The assay is described as follows: Inhibition of AXL at 10 uM.
In assay [9] the target is Aurora kinase B (Homo sapiens) (UniProt Q96GD4). The assay is described as follows: Inhibition of AuroraB at 10 uM.
Chain of Aurora kinase B (Homo sapiens) (Q96GD4 whole entry): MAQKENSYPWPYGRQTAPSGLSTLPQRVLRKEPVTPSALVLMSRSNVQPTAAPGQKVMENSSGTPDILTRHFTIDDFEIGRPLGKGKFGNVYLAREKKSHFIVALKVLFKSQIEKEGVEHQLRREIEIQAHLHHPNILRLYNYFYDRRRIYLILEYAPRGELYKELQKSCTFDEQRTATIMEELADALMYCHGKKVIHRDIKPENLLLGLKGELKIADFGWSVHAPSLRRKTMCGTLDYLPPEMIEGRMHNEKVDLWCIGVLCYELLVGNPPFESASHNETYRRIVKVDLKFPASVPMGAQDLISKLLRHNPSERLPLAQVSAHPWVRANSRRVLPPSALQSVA
For assay [10], the target named is Serine/threonine-protein kinase N1 (Homo sapiens) (UniProt Q16512). The assay is described as follows: Inhibition of PRK1 at 10 uM.
Chain of Serine/threonine-protein kinase N1 (Homo sapiens) (Q16512 2-942 limits assumed): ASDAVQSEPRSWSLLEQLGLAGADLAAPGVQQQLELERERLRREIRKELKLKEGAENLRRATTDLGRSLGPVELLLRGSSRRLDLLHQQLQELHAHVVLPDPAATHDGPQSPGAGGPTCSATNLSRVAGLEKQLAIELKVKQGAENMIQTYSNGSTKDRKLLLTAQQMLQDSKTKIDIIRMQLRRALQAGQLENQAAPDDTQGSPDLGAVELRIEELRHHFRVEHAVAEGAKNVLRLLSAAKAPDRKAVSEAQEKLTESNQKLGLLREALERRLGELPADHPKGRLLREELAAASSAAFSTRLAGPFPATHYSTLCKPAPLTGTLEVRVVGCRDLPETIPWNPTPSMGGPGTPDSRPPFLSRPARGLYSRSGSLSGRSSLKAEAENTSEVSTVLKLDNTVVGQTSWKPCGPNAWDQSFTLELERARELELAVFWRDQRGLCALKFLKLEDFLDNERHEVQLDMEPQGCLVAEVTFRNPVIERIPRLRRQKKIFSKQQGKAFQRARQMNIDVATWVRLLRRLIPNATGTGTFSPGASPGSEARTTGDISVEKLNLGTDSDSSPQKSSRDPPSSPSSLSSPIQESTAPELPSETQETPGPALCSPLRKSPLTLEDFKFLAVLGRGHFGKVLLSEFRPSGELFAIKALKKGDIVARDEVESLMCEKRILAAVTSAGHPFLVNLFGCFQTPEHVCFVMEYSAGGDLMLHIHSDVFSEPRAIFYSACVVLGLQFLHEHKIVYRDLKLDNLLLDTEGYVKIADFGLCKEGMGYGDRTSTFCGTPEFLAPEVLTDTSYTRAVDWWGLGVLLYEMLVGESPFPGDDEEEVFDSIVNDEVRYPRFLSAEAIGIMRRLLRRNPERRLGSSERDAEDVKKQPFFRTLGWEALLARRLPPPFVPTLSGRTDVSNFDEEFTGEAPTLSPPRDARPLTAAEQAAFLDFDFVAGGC
For assay [11], the target named is T2, Mitogen-activated protein kinase 14 (Homo sapiens, UniProt Q16539). The assay is described as follows: Inhibition of p38alpha-dependent TNFalpha production in human whole blood.
T2 sequence (Q16539 whole entry): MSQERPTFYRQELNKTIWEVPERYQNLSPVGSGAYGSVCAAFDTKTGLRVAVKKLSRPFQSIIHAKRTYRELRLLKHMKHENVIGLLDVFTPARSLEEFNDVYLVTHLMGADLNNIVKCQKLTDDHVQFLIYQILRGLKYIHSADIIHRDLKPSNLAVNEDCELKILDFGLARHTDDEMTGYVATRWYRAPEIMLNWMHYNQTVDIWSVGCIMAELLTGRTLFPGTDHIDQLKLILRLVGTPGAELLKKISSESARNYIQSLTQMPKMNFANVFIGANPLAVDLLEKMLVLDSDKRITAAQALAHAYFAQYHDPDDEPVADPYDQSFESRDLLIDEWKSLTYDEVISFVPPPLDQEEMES
Assay [12] addresses Insulin-like growth factor 1 receptor (Homo sapiens) (UniProt P08069). Description: Inhibition of IGF1R at 10 uM.
Assay [13] addresses Vascular endothelial growth factor receptor 2 (Homo sapiens) (UniProt P35968). The assay is described as follows: Inhibition of VEGFR2 at 10 uM.
Assay [14] deals with Serine/threonine-protein kinase PLK1 (Homo sapiens) (UniProt P53350). Description: Inhibition of PLK1 at 10 uM.
Assay [15] has as its target T2, Mitogen-activated protein kinase 14. Description: Inhibition of p38alpha by immunosorbent based kinase assay.
Assay [16] addresses T3, Serine/threonine-protein kinase PLK4 (Homo sapiens) (UniProt O00444).
T3 sequence (whole entry): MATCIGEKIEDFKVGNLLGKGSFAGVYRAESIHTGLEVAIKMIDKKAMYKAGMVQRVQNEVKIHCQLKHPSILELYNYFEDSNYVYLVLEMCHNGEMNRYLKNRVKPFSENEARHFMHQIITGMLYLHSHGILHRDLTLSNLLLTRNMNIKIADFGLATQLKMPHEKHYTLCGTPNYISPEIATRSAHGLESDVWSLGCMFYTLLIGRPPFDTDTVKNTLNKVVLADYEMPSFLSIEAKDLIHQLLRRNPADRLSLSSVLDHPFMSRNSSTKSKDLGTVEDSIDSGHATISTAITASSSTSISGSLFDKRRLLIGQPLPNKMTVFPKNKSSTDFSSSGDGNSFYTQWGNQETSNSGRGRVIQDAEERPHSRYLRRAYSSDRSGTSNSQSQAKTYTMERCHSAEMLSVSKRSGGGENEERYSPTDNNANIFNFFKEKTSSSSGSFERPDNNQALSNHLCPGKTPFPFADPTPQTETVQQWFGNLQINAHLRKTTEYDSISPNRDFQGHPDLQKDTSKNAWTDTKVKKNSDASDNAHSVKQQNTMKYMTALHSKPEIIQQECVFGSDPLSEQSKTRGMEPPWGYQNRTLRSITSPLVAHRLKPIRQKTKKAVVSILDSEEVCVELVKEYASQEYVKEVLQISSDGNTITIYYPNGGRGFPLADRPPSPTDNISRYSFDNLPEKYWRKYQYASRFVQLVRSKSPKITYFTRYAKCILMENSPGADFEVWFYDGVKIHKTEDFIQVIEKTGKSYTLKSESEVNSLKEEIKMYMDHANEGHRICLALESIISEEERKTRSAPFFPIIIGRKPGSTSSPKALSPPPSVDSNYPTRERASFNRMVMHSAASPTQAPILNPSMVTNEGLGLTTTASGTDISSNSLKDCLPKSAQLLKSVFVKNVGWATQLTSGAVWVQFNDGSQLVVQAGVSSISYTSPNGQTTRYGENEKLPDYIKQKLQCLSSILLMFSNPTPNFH
Description: Inhibition of SAK at 10 uM.

Assay [17] relates to Serine/threonine-protein kinase B-raf (Homo sapiens), P15056 [V600E]. The assay is described as follows: Inhibition of BRAF V600E mutant at 10 uM.
Assay [18] deals with Hepatocyte growth factor receptor (Homo sapiens) (UniProt P08581). The assay is described as follows: Inhibition of MET at 10 uM.

Here are results for 30 compounds from ChEMBL document CHEMBL2150974 (J Med Chem, 2012).

Active and inactive are the calls of the source. The rule behind the calls is not given here.

Chain of Insulin-like growth factor 1 receptor (Homo sapiens) (P08069 31-736 limits assumed): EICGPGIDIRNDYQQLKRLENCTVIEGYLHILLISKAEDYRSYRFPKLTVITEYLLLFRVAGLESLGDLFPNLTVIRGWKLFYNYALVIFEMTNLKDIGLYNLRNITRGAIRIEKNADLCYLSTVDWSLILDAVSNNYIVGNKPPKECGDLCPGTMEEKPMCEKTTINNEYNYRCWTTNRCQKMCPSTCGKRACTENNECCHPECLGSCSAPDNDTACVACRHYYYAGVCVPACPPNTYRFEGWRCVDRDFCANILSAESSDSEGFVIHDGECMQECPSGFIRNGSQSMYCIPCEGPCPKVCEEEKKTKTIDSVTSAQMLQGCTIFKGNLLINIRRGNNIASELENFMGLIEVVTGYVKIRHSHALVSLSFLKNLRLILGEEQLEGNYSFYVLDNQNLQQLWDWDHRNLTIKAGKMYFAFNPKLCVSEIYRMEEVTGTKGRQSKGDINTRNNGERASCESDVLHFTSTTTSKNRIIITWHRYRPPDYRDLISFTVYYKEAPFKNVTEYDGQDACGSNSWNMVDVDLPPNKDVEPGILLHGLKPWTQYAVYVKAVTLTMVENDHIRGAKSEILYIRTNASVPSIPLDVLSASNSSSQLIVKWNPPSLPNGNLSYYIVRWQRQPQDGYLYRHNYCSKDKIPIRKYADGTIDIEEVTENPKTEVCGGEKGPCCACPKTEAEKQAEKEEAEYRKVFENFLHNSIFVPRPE
Chain of Insulin-like growth factor 1 receptor (Homo sapiens) (P08069 741-1367 limits assumed): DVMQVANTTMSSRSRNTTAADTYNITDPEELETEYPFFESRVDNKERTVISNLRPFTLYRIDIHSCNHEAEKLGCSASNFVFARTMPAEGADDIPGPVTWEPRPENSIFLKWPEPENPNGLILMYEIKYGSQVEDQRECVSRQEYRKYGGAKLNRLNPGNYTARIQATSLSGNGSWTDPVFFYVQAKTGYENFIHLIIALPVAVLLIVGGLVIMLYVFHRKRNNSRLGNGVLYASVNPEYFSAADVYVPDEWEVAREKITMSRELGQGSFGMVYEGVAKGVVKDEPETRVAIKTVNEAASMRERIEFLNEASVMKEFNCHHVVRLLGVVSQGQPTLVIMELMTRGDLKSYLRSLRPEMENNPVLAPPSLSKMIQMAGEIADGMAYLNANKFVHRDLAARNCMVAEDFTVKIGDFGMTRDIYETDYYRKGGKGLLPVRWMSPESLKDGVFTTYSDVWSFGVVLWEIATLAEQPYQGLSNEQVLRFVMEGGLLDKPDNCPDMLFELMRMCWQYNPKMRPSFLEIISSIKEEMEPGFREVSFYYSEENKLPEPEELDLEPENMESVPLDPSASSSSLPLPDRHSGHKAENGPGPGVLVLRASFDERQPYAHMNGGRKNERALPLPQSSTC
Chain of Focal adhesion kinase 1 (Homo sapiens) (Q05397 2-1052 limits assumed): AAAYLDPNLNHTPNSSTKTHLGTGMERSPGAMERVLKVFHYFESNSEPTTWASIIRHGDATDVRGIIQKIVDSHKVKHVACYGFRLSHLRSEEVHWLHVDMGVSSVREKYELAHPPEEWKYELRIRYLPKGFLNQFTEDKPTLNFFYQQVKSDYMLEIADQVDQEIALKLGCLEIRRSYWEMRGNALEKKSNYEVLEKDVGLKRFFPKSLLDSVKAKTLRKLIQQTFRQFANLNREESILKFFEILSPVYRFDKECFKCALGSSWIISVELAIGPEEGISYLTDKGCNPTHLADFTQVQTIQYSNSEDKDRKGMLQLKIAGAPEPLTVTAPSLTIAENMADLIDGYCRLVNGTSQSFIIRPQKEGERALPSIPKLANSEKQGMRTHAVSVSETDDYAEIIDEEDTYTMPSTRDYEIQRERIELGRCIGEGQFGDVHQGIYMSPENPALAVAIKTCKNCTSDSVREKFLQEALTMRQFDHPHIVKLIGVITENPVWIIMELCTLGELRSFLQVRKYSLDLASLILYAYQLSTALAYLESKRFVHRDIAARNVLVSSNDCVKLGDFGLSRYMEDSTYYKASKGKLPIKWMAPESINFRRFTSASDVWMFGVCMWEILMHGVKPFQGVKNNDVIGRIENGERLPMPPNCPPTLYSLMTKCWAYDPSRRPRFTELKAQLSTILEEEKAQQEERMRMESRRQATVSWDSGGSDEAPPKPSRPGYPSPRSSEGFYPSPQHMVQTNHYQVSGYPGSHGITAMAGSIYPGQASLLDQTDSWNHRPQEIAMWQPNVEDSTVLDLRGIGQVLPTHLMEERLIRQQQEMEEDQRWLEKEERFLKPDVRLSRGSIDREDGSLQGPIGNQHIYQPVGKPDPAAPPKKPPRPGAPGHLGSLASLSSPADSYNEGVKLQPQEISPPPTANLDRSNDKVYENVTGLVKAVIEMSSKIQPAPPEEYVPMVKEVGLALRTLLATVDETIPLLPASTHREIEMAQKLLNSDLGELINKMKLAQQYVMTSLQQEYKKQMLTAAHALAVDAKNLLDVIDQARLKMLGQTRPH
Chain of Casein kinase II subunit alpha (Homo sapiens) (P68400 whole entry, looked up): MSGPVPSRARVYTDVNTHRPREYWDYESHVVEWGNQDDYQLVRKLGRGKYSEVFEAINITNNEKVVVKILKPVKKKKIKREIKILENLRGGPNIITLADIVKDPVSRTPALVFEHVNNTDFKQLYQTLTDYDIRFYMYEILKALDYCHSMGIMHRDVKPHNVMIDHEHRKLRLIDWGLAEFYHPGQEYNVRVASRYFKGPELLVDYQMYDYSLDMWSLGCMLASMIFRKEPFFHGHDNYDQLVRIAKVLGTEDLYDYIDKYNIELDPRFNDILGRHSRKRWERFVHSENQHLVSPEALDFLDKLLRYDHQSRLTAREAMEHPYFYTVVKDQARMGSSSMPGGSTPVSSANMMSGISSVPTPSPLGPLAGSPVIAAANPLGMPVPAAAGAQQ

As to `COc1cccc2c1CCc1cc(Nc3ccccc3N)ccc1C2=O`, the inhibition entry in assay [1], in [2], in assay [3], in [4], in assay [5] and in assay [6] was “inactive” each time. Moreover, the inhibition entry in [7], in [8], in assay [9], in assay [10], in [12] and in assay [13] was “inactive” each time. In addition, the inhibition result in assay [14], in assay [16], in [17] and in assay [18] was “inactive” throughout. For the same compound, the IC50 in assay [11] was determined as 52100 nM; in [15], 80 nM.
`O=C1c2ccc(Nc3ccc(F)cc3F)cc2CCc2ccc(OC3CCOCC3)cc21`: the inhibition entry in assay [1], in [2], in assay [3], in [4], in assay [5] and in [6] was “inactive” throughout. The inhibition result in assay [7], in assay [8], in assay [9], in assay [10], in [12] and in assay [13] was “inactive” throughout. Also, the inhibition result in assay [14], in assay [16], in assay [17] and in assay [18] was “inactive” each time. The IC50 in assay [11] amounted to 530 nM; in assay [15] it was 60 nM.
Regarding `O=C1c2ccc(Nc3ccccc3)cc2CCc2ccc(O)cc21`, the IC50 in assay [11] came out at 2200 nM; in assay [15], 60 nM.
`COc1ccc2c(c1)C(=O)c1ccc(Nc3ccccc3)cc1CC2`: the IC50 in assay [11] is 3200 nM; in [15], 70 nM.
For `O=C1c2ccc(Nc3ccc(F)cc3F)cc2CCc2cc(OCCN3CCOCC3)ccc21` the same measures were 40000 nM and 20 nM.
Take `Nc1ccccc1Nc1ccc2c(c1)CCc1cc(OC[C@H](O)CO)ccc1C2=O`: the IC50 in assay [11] was 6000 nM; in [15] it was 30 nM.
The matching figures for `COc1ccc2c(c1)C(=O)c1ccc(Nc3ccccc3F)cc1CC2`: 4900 nM and 70 nM.
For `CC1(C)OC[C@@H](COc2ccc3c(c2)C(=O)c2ccc(Nc4ccc(F)cc4F)cc2CC3)O1` the same measures were 230 nM and 40 nM.
For `O=C1c2ccc(Nc3ccc(F)cc3F)cc2CCc2ccc(OCCN3CCOCC3)cc21`, the figures for the IC50 in assay [11] and in assay [15] were 80 nM and 10 nM, respectively.
The matching figures for `O=C1c2ccc(Nc3ccc(F)cc3F)cc2CCc2ccc(OCC[C@@H](O)CO)cc21`: 80 nM and 10 nM.
Turning to `O=C1c2ccc(Nc3ccc(F)cc3F)cc2CCc2ccc(OC[C@@H](O)CO)cc21`, the inhibition entry in assay [1], in assay [2], in assay [3], in [4], in assay [5] and in assay [6] was “inactive” throughout. For the same compound, the inhibition result in [7], in assay [8], in assay [9], in assay [10], in [12] and in [13] was “inactive” each time. For the same compound, the inhibition entry in [14], in [16], in assay [17] and in [18] was “inactive” each time.
For `COc1ccc2c(c1)C(=O)c1ccc(Nc3ccc(F)c(F)c3F)cc1CC2`, the 50% inhibitory concentration (IC50) in assay [11] is 81000 nM; in assay [15], 3530 nM.
The matching figures for `COc1ccc2c(c1)C(=O)c1ccc(Nc3ccc(F)cc3N)cc1CC2`: 1900 nM and 40 nM.
Turning to `O=C1c2ccc(Nc3ccc(F)cc3Cl)cc2CCc2ccc(O)cc21`, the figures for the IC50 in assay [11] and in assay [15] were 3800 nM and 560 nM, respectively.
The matching figures for `O=C1c2ccc(Oc3ccc(F)cc3F)cc2CCc2ccc(OC[C@@H](O)CO)cc21`: 6700 nM and 40 nM.
As to `COc1ccc2c(c1)C(=O)c1ccc(Nc3ccccc3OC)cc1CC2`, the IC50 in [11] is 7600 nM; in assay [15], 380 nM.
Consider `COc1ccc2c(c1)C(=O)c1ccc(Oc3ccc(F)cc3F)cc1CC2`, for which half-maximal inhibition in assay [15] (IC50) required 100 nM.
Turning to `CC1(C)OC[C@@H](COc2ccc3c(c2)C(=O)c2ccc(Nc4ccccc4N)cc2CC3)O1`, the concentration for half-maximal inhibition (IC50) amounted to 190 nM in assay [11] and 60 nM in assay [15].
Take `O=C1c2ccc(Oc3ccc(F)cc3F)cc2CCc2ccc(OCCN3CCOCC3)cc21`: the half-inhibitory concentration (IC50) in [11] is 4500 nM; in assay [15] it was 80 nM.
The matching figures for `COc1ccc2c(c1)C(=O)c1ccc(Nc3ccc(F)cc3F)cc1CC2`: 1200 nM and 20 nM.
With `O=C1c2ccc(Nc3ccc(F)cc3F)cc2CCc2cc(OCCO)ccc21`, the IC50 in [11] amounted to 4700 nM; in [15] it was 20 nM.
For `O=c1c2ccc(Nc3ccc(F)cc3F)cc2ccc2ccc(O)cc12` the same measures were 26700 nM and 300 nM.
The matching figures for `CC1(C)OC[C@H](COc2ccc3c(c2)CCc2cc(Nc4ccccc4N)ccc2C3=O)O1`: 93600 nM and 80 nM.
The matching figures for `O=C1c2ccc(Nc3ccc(F)cc3F)cc2CCc2cc(OCCCO)ccc21`: 19500 nM and 30 nM.
With `O=C1c2ccc(Nc3ccc(F)cc3F)cc2CCc2ccc(O)cc21`, the IC50 stood at 700 nM in [11] and 20 nM in assay [15].
On to `O=C1c2ccc(Nc3ccccc3Cl)cc2CCc2ccc(O)cc21`, for which the half-maximal inhibitory concentration (IC50) is 7500 nM in [11] and 140 nM in assay [15].
As to `COc1ccc2c(c1)C(=O)c1ccc(Nc3ccccc3N)cc1CC2`, the half-maximal inhibitory concentration (IC50) in [11] was 1500 nM; in [15] it was 40 nM.
With `Nc1ccccc1Nc1ccc2c(c1)CCc1ccc(OC[C@@H](O)CO)cc1C2=O`, the IC50 in [11] was determined as 170 nM; in assay [15] it was 8 nM.
The matching figures for `COc1ccc2c(c1)CCc1cc(Nc3ccc(F)cc3F)ccc1C2=O`: 10200 nM and 20 nM.
For `COc1ccc2c(c1)CCc1cc(Nc3ccccc3N)ccc1C2=O` the same measures were 12300 nM and 70 nM.

What is called IC50 is the concentration that gives 50% inhibition. Lower therefore signals greater potency.
